Measurements as given in US20140024171A1, “PERYLENE TETRACARBOXYLIC ACID BISIMIDE DERIVATIVE, N-TYPE SEMICONDUCTOR, A METHOD FOR PRODUCING N-TYPE SEMICONDUCTOR, AND ELECTRONIC DEVICE” (NATIONAL UNIVERSITY CORPORATION KAGAWA UNIVERSITY, priority 2012, published 2014).
Entries after “also recorded” stand apart in the source; their conditions may differ.

Tests used:
[1] = Solubility in organic solvents; type: physicochemical
Description: Thus, the liquid crystal compound (1-1) can be formed into a film by a spin coating method using a solution in any of these solvents. The film formation was performed as follows in the present example.
Thus, the liquid crystal compound (2-1) can be formed into a film by a spin coating method using a solution in any of these solvents. The film formation was performed as follows in the present example.

[2] = Charge transport properties (carrier mobility) by transient photocurrent measurement, Time-of-Flight (TOF) method; type: physicochemical; settings: for maximum electron mobility calculated by the TOF method: room temperature (25° C.), sample thickness 9 μm, applied voltage 10 V to 100 V
Description: Charge transport properties (carrier mobility properties) of the liquid crystal compound (2-1) ((2), m=1, n=1) obtained in Example 2 were measured by a Time-of-Flight (TOF) method. In this method, while a DC voltage was applied to a sandwich-type sample (liquid crystal cell produced in Example 4) having photoconductivity, the sample was irradiated with a pulse laser to cause photocarriers to be generated on one side of the sample, and a change in displacement current (transient photocurrent) induced in an external circuit when the carriers transited in the sample over time was measured. A constant current was generated by the transit of photocarriers, and when the carriers reached the counter electrode, the current was decayed to 0. The time from a start of decay in transient photocurrent to 0 corresponds to the time required for the carriers to transit in the sample (transit time). When the thickness of the sample is represented by d (cm), an applied voltage is represented by V (volt), and the transit time is represented by tT, mobility p (cm^2/Vs) is represented by the following mathematical expression. When an electrode on the irradiation side is biased to positive, mobility of positive carriers is determined, and when an electrode on the irradiation side is biased to negative, mobility of negative carriers is determined.
The measurement by a Time-of-Flight method was performed as follows. That is, while a voltage was applied to the liquid crystal cell produced in Example 4 at room temperature, the liquid crystal cell was irradiated with a pulse laser (Nd: YAG laser, THG: wavelength of 356 nm, pulse width of 1 ns), and a displacement current induced at the time of the irradiation was measured with a digital oscilloscope. […] In FIG. 7, the horizontal axis indicates time (μs), and the vertical axis indicates a photocurrent (μA). The present sample has favorable photoconductivity, and thus, sufficiently strong current signal could be obtained. […] According to the measurement result, the mobility of negative carriers reached maximum at 1×10^−3 cm^2/Vs at 30° C. This value is higher by an order of magnitude than the mobility of a conjugate polymer-fullerene derivative composite generally used in a bulk hetero junction-type organic thin-film solar battery.
Charge transport properties (carrier mobility properties) of the liquid crystal compound (2-44) ((2), m=0, n=1)) were measured through transient photocurrent measurement by a Time-of-Flight method using the liquid crystal cell produced in Example 8. The transient photocurrent measurement by a Time-of-Flight method was performed in the same manner as in the measurement of charge transport properties (carrier mobility properties) of the liquid crystal compound (2-1) ((2), m=1, n=1). The thickness of a sample of the liquid crystal compound (2-44) ((2), m=0, n=1)) was 25 μm. The measurement temperature was 40° C., and the measurement was performed while changing an applied voltage from 10 V to 100 V by 10 V increments. The graphs of FIGS. 11A and 11B show the results of the measurement. In FIGS. 11A and 11B, the horizontal axis indicates time (μs), and the vertical axis indicates a photocurrent (μA). As shown in FIGS. 11A and 11B, in the same time of flight, the higher the applied voltage was, the higher the photocurrent flowed.
In addition, the same measurement as in FIGS. 11A and 11B was performed with a change in measurement temperature from 25° C. to 130° C. The result of the measurement is shown in a graph of FIG. 12A. In FIG. 12A, the horizontal axis indicates an electric field strength (10^4 V/cm), and the vertical axis indicates carrier mobility (cm^2/Vs). […] Thus, the vertical axis (carrier mobility) is equal to electron mobility.
A result of the measurement at an electric field strength of 4.0×10^4 V/cm in FIG. 12A is shown in a graph of FIG. 12B as a function of time and electron mobility. […]

Row | SMILES | solubility in organic solvents [1] | electron mobility relative to the maximum electron mobility of liquid crystal compound (2-1) [2] | maximum electron mobility calculated by the TOF method [2] | further results
1 | C[Si](C)(C)O[Si](C)(C)O[Si](C)(C)CCCN1C(=O)c2ccc3c4ccc5c6c(ccc(c7ccc(c2c37)C1=O)c64)C(=O)N(CCC[Si](C)(C)O[Si](C)(C)O[Si](C)(C)C)C5=O [Compound (1-1), perylene tetracarboxylic acid bis(1,1,1,3,3,5,5-heptamethyltrisiloxanylpropylimide)] | soluble in toluene, chlorobenzene, tetrahydrofuran, chloroform, dichloromethane, and the like; also recorded: high solubility in various organic solvents |  |  | 
2 | C[Si](C)(C)O[Si](C)(C)O[Si](C)(C)CCCCC(CCCC[Si](C)(C)O[Si](C)(C)O[Si](C)(C)C)N1C(=O)c2ccc3c4ccc5c6c(ccc(c7ccc(c2c37)C1=O)c64)C(=O)N(C(CCCC[Si](C)(C)O[Si](C)(C)O[Si](C)(C)C)CCCC[Si](C)(C)O[Si](C)(C)O[Si](C)(C)C)C5=O [Compound (2-1), perylene tetracarboxylic acid bis{di-(1,1,1,3,3,5,5-heptamethyltrisiloxanylbutyl)-methylimide}] | soluble in ethyl acetate, acetone, cyclohexane, and the like in addition to toluene, chlorobenzene, tetrahydrofuran, chloroform, dichloromethane, and the like; also recorded: high solubility in various organic solvents |  |  | 
3 | C[Si](C)(C)O[Si](C)(C)CCCCC(CCCC[Si](C)(C)O[Si](C)(C)C)N1C(=O)c2ccc3c4ccc5c6c(ccc(c7ccc(c2c37)C1=O)c64)C(=O)N(C(CCCC[Si](C)(C)O[Si](C)(C)C)CCCC[Si](C)(C)O[Si](C)(C)C)C5=O [Compound (2-44)] |  | 100 times higher |  | maximum electron mobility ([2]; 40° C., electric field strength 4.0×10^4 V/cm, sample thickness 25 μm): 1.2×10^−1 cm^2/Vs; electron mobility at 130° C. relative to the electron mobility at 40° C. ([2]; temperature increased to 130° C.): about a half
4 | C[Si](C)(C)O[Si](C)(C)CCCCCCC(CCCCCC[Si](C)(C)O[Si](C)(C)C)N1C(=O)c2ccc3c4ccc5c6c(ccc(c7ccc(c2c37)C1=O)c64)C(=O)N(C(CCCCCC[Si](C)(C)O[Si](C)(C)C)CCCCCC[Si](C)(C)O[Si](C)(C)C)C5=O [Compound (2-46)] |  | about 10 times higher | 1×10^−2 cm/Vs | 
5 | C[Si](C)(C)O[Si](C)(C)O[Si](C)(C)CCCCC(CCCC[Si](C)(C)O[Si](C)(C)O[Si](C)(C)C)Oc1ccc(N2C(=O)c3ccc4c5ccc6c7c(ccc(c8ccc(c3c48)C2=O)c75)C(=O)N(c2ccc(OC(CCCC[Si](C)(C)O[Si](C)(C)O[Si](C)(C)C)CCCC[Si](C)(C)O[Si](C)(C)O[Si](C)(C)C)cc2)C6=O)cc1 [Compound (5-1), N—N′-bis(4-(1,9,-di(1,1,1,3,3,5,5-heptamethyltrisiloxanyl)nonane-5-yloxy)phenyl)perylene-3,4,9,10-tetracarboxylic acid bisimide] |  |  | 1×10^−4 cm/Vs | 
6 | C=CCN1C(=O)c2ccc3c4ccc5c6c(ccc(c7ccc(c2c37)C1=O)c64)C(=O)N(CC=C)C5=O [Compound (6), perylene tetracarboxylic acid bis(allylimide)] | barely dissolved in an organic solvent |  |  | 
